Entries after “also recorded” stand apart in the source; their conditions may differ.
Legend:
Aβ1-40 [1] = target: T1, Aβ1-40 (Homo sapiens, UniProt P05067); assay: ThT fluorescence assay, inhibition of Aβ1-40 aggregation; format: biochemical
T1 construct: Both Aβ1-40 and Aβ1-42 were purchased from Anaspec; purchased Anaspec
Experimental: The compounds of the invention were evaluated for activity against Aβ aggregation in a kinetic thioflavin T (ThT) fluorescence assay similar to that of Chalifour, R. J., et al., J. Biol. Chem. (2003) 278: 34874-81. IC50 values for inhibition of Aβ1-40 aggregation in the ThT fluorescence assay for a number compounds of the present invention were determined. Values were calculated by solving the equation y=(m2)/(1+(x/m3)^m4) where y is percent aggregation, x is compound concentration, and m3 is the concentration giving 50% aggregation (i.e. IC50), using KaleidaGraph 4.0 (Synergy Software). Dye-binding ThT/ThS protein aggregation assays for Aβ, tau and α-synuclein were performed as described in Example 8 of US2007/0015813.

Tau 441 [2] = target: T2, Tau 441 (Homo sapiens, UniProt P10636); assay: Tris-tricine SDS-PAGE, Tau 441 self-assembly following ThS aggregation assay; format: biochemical; conditions: FIG. 10; for effect on Tau 441 self-assembly, monomer fragmentation (SDS-PAGE): relative to control
Experimental: (§1) Pre-cast polyacrylamide gels were purchased from NuSep (10-20% Tris-tricine-SDS). These were chosen for their large separation range of 2.5 to 205 kDa. Molecular weight markers were purchased from Sigma Aldrich and diluted twenty fold for individual use. Three buffers were used for this technique: 1) Sample buffer (1.25 mL 0.5 M Tris-HCl (pH 6.8), 2.5 mL glycerol, 2.0 mL 10% SDS, 0.2 mL 0.5% bromophenol blue, 3.55 mL distilled water) which was used as the leading band in the gel. 2) Cathode Buffer (12.11 g tris base, 17.92 g tricine, 1 g SDS, diluted to 1 L with distilled water) which was the inner buffer in the tank assembly. 3) Anode Buffer (5× concentrated: 121.1 g tris base in 1 L of distilled water, pH 8.9 adjusted with concentrated HCl) which was the outer buffer and loaded at 1× concentration. Both Aβ1-40 and Aβ1-42 were purchased from Anaspec.
(§2) Five solutions were required to stain the gels using the silver stain protocol: 1) Fixer 1 (40% methanol, 10% acetic acid, diluted to 1 L with Millie-Q water) 2) Fixer 2 (45 g anhydrous sodium acetate, 300 mL methanol, 5 mL 25% glutaraldehyde, diluted to 1 L with Millie-Q water), 3) a) Silver stain A (15 mL of 25% ammonia solution, 0.8 g sodium hydroxide, diluted to 950 mL with Millie Q water). b) Silver stain B (6 g of silver nitrate in 50 mL Millie Q water). Solution B was then slowly added to solution A. 4) Developer (0.1 g citric acid, 1 mL formaldehyde, diluted to 1 L with Millie-Q water), 5) Stop solution (50 mL acetic acid, diluted to 1 L with Millie-Q water).
(§3) Following a ThT (Aβ1-40) or ThS (Tau 441) aggregation assay, described in Example 8 of US2007/0015813, samples were immediately aspirated and stored in centrifuge tubes. 10 μL of each sample was transferred to a microfuge tube and diluted 1:1 with sample buffer before being incubated (37° C.) for 30 minutes and loaded in the precast gels (15 μL in each well). The gel was then run at 100 V for approximately one hour or until the leading band reached the bottom of the gel.
(§4) Once the gel had finished running, it was removed from its plastic case and placed in a tray for staining. Approximately 200-250 mL volume was used for all the solutions. The gel was first washed with distilled water briefly to rinse off the excess buffer from the tank. It was then immersed in Fixer 1 for 30 minutes. followed by Fixer 2 for 30 minutes. Once the gel was fixed it then underwent three water washes at 10 minutes per wash. After the water washes, the gel was stained for 30 minutes using the silver stain solution. Excess stain was removed using three four-minute water washes. The gel was then immersed in the developer solution to visualize the stain. This took place for approximately 5 minutes or until the desired intensity was reached. To immediately stop the developing process the gel was placed in the stop solution for 10 minutes.

Tau 441 [3] = target: T2, Tau 441; assay: TEM of Tau 441 fibrils following ThS aggregation assay; format: biochemical; conditions: Tau 441 6 μM, compound 20 μM, FIG. 14
Experimental: (§5) A modified version of the procedure of Cohen et al. (Biochemistry 2006, 45: 4727-35) was followed for TEM analysis. Uranylacetate was used as negative stain (Electron Microscopy Sciences) and was made as a 3% solution and stored at 5° C. in the dark to reduce photodecay. Aspirated samples from ThT (Aβ1-40) and ThS (Tau 441) aggregation assays, or Aβ1-42 incubated (37° C.) for 30 min. in the presence and absence of compounds were used in the TEM analyses. Samples were carefully loaded on Formvar-coated 400 mesh copper grids (Electron Microscopy Sciences) as a 10 μL drop. After sitting for 60 seconds, excess fluid was gently dabbed off with filter paper. Next, the 3% uranylacetate was added as a drop onto the grid and left to stand for another 60 seconds. The excess fluid was again dabbed off by filter paper. Samples were left to dry for at least 30 minutes prior to being viewed on an electron microscope operating at 80 kV.

Tau 441 [4] = target: T2, Tau 441; assay: ThS fluorescence assay, Tau 441 aggregation; format: biochemical; conditions: Tau 441 6 μM; compound 50 μM and 10 μM; 24 hours, 37° C., FIG. 15
Experimental: (§6) The following procedures were used. The compounds were examined by circular dichroism (CD) to confirm their anti-amyloidogenic activity and were further evaluated for inhibition of both tau and α-synuclein aggregation in Thioflavin S (ThS) and ThT dye-binding fluorescence assays, respectively. The compounds were also evaluated in a MTT [3-(4,5-dimethylthiazol-2-yl)-2,5-diphenyltetrazolium bromide] cell viability assay (Kaneko, I., et al., J. Neurochem. (1995) 65: 2585-93). Pharmacokinetic (PK) testing was also performed. Compounds administered to mice (IP or PO dosing) had no toxicity at doses up to 300 mg/kg and were present in brain more than four hours after administration.
(§7) Dye-binding ThT/ThS protein aggregation assays for Aβ, tau and α-synuclein were performed as described in Example 8 of US2007/0015813.

Aβ1-40 [5] = target: T1, Aβ1-40; assay: TEM of Aβ1-40 fibrils; format: biochemical; conditions: Aβ1-40 20 μM; for Aβ1-40 fibril formation (TEM): compound 20 μM, following ThT aggregation assay, FIG. 11; for Aβ1-40 fibrils (TEM): absence of ThT
Experimental: as §5

Aβ1-42 [6] = target: T3, Aβ1-42 (Homo sapiens, UniProt P05067); assay: TEM of Aβ1-42 fibrils; format: biochemical; conditions: Aβ1-42 20 μM, absence of ThT, FIG. 13
T3 construct: Both Aβ1-40 and Aβ1-42 were purchased from Anaspec; purchased Anaspec
Experimental: as §5

α-synuclein = α-synuclein (Homo sapiens, UniProt P37840); assay: ThT fluorescence assay, α-synuclein aggregation; format: biochemical; conditions: α-synuclein 4 μM; compound 100 μM and 20 μM; 96 hours, 37° C., FIG. 16
Experimental: as §6, §7

Aβ1-42 [7] = target: T3, Aβ1-42; assay: Tris-tricine SDS-PAGE, Aβ1-42 self-assembly; format: biochemical; conditions: versus control, FIG. 8
Experimental: as §1
as §2, with “Solution B was then slowly added to solution A. 4) Developer (0.1 g citric acid, 1 mL formaldehyde, diluted to 1 L with Millie-Q water), 5) Stop solution (50 mL acetic acid, diluted to 1 L with Millie-Q water).” left out

[8] = test system: SH-SY5Y neuroblastoma cells; assay: MTT cell viability assay, protection from Aβ40; format: cell-based; conditions: Aβ40 20 μM
Experimental: The assay was based on that reported by Conte and co-workers (Conte, A., Pellegrini, s. & Tagliazucchi, D. 2Q03. Brain Res. Bull. 62, 29-38). Briefly, Aβ1-40 (1.0 mg) was dissolved directly in Tris base ([…], […], pH approximately 10). The pH was dropped to 7.4 using concentrated HCl and the solution diluted ten-fold with growth medium consisting of Dulbecco's Modified Eagle Medium (high glucose) containing 10% fetal bovine serum. penicillin-G (10,000 units/mL) and streptomycin (10 mg/mL); giving 20 μM Aβ40. For non-Aβ-containing controls. growth medium was diluted 10% with Tris buffer (20 mM, pH 7.4). SH-SY5Y neuroblastoma cells were seeded at approximately 20,000 cells per well in a covered 96-well clear polystyrene plate and incubated at 37° C., 5% CO2 for 24 h. After discarding supernatant, growth medium (200 μL), containing either Aβ3-40 or vehicle (controls), was added to the wells, followed by test compound in DMSO (0.5 μL) or DMSO alone (controls). Incubations all had 5 or more replicates. After incubating for 6-10 h (37° C., 5% C02), the dye 3-(4,5-dimethylthiazol-2-yl)-2,5-diphenyltetrazolium bromide (MTT, 20 microL. 5 mg/mL in PBS) was added to each well and the plate incubated for another 2 h. Medium was discarded and the formazan product dissolved by adding DMSO (100 μL) and shaking. Absorbance was measured at 540 nm in a Tecan Genios microplate reader.

[9] = test system: APP/PS1 transgenic mice hippocampal slices; assay: LTP electrophysiology in hippocampal slices; format: cell-based; conditions: 50 μM, FIG. 18
Experimental: Electrophysiological analysis was performed on males (see detailed description in Gong, B., el al., Cell (2006) 126: 775-88). Hippocampal slices (400 μm) were cut with a tissue chopper and maintained in an interface chamber at 29° C. for 90 min prior to recording. Briefly. CA1 fEPSPs were recorded by placing both the stimulating and the recording electrodes in CA1 stratum radiatum. Basal synaptic transmission was assayed by plotting the stimulus voltages against slopes of fEPSP. For LTP experiments, a 15 min baseline was recorded every min at an intensity that evokes a response ˜35% of the maximum evoked response. LTP was induced using θ-burst stimulation (4 pulses at 100 Hz, with the bursts repeated at 5 Hz and each tetanus including 3 ten-burst trains separated by 15 sec).

Aβ1-40 [10] = target: T1, Aβ1-40; assay: Tris-tricine SDS-PAGE, Aβ1-40 self-assembly following ThT aggregation assay; format: biochemical; conditions: FIG. 9
Experimental: as §1, §2, §3, §4

T3 sequence (P05067 672-713 limits assumed): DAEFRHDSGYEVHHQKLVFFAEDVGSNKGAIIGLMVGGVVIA
T2 sequence (P10636 1-441 isoform P10636-8): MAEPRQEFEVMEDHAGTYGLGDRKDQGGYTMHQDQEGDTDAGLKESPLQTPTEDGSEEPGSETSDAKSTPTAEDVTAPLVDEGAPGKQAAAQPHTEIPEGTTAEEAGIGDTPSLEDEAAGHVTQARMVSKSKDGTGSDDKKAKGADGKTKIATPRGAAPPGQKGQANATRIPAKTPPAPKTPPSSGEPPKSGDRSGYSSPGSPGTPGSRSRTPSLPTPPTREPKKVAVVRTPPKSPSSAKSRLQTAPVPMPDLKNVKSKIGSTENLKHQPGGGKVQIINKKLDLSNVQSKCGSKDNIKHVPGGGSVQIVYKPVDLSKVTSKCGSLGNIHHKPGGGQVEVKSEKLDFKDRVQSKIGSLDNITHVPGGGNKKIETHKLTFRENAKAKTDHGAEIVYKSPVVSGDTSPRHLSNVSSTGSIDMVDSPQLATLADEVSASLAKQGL
T1 sequence (P05067 672-711 limits assumed): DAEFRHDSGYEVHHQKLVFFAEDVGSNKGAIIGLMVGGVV

SMILES: O=C(O)c1cc2cc(-c3ccc4c(c3)OCCO4)ccc2c(Br)c1O [QR-0281, 4-Bromo-7-(2,3-dihydrobenzo[b][1,4]dioxin-7-yl)-3-hydroxyynaphthalene-2-carboxylic acid]
- IC50 (Aβ1-40 [1]): 4.6 µM
- Tau 441 dimer and trimer bands (SDS-PAGE) (Tau 441 [2]): appearance of dimer and trimer bands
- effect on Tau 441 self-assembly, monomer fragmentation (SDS-PAGE) (Tau 441 [2]): decreased fragmentation of tau 441 monomer
- Tau 441 assemblies seen (TEM) (Tau 441 [3]): spherical assemblies that were not present in the control
- Tau 441 fibril formation (TEM) (Tau 441 [3]): increase in fibril formation
- inhibition of Tau 441 aggregation (ThS fluorescence) (Tau 441 [4]): greatly inhibited

SMILES: O=C(O)c1ccc2[nH]cc(-c3c(O)c(O)cc4ccccc34)c2c1 [QR-0194]
- IC50 (Aβ1-40 [1]): 17.7 µM
- Aβ1-40 fibril formation (TEM) (Aβ1-40 [5]): increase in fibril formation but of a different morphology
- Aβ1-42 fibrils (TEM) (Aβ1-42 [6]; compound 20 μM): apparent increase in the number of fibrils
- inhibition of α-synuclein aggregation (ThT fluorescence) (α-synuclein): showed inhibition

SMILES: O=C(O)c1cccc2c(-c3c(O)c(O)cc4ccccc34)c[nH]c12 [QR-0273]
- IC50 (Aβ1-40 [1]): 10.3 µM
- effect on Aβ1-42 self-assembly (SDS-PAGE) (Aβ1-42 [7]): increase in the presence of monomer and pentamer as well as the appearance of a dimer
- Aβ1-40 fibrils (TEM) (Aβ1-40 [5]; compound 100 μM, FIG. 12): increase in the number of fibrils

SMILES: Oc1ccc2[nH]cc(-c3c[nH]c4ncccc34)c2c1 [QR-0161]
- % cell viability, protection from Aβ40 ([8]; 20 and 50 μM compound): significantly active

SMILES: COc1ccc2cc(-c3c[nH]c4c(C(=O)O)cccc34)ccc2c1 [QR-0262, 3-(2-Methoxynaphthalen-6-yl)-1H-indole-7-carboxylic acid]
- IC50 (Aβ1-40 [1]): 4.4 µM
- effect on Tau 441 self-assembly, monomer fragmentation (SDS-PAGE) (Tau 441 [2]): no clear effect
- Tau 441 assemblies seen (TEM) (Tau 441 [3]): spherical assemblies that were not present in the control
- Tau 441 fibril formation (TEM) (Tau 441 [3]): increase in fibril formation
- inhibition of Tau 441 aggregation (ThS fluorescence) (Tau 441 [4]): only moderately inhibited

SMILES: O=C(O)c1ccc2[nH]cc(-c3ccc4cc(O)ccc4c3)c2c1 [QR-0217]
- inhibition of α-synuclein aggregation (ThT fluorescence) (α-synuclein): showed inhibition
- rescue of LTP impairment [9]: significantly rescued impairment of LTP; also recorded: significantly (P=0.022) rescuing impairment of LTP

SMILES: O=C(O)c1cc2cc(-c3ccc4cc(O)ccc4c3)ccc2c(Br)c1O [QR-0263, 4-bromo-3-hydroxy-7-(2-hydroxynaphthalen-6-yl)naphthalene-2-carboxylic acid]
- IC50 (Aβ1-40 [1]): 1.93 µM
- Tau 441 dimer and trimer bands (SDS-PAGE) (Tau 441 [2]): appearance of dimer and trimer bands
- effect on Tau 441 self-assembly, monomer fragmentation (SDS-PAGE) (Tau 441 [2]): decreased fragmentation of tau 441 monomer
- Aβ1-40 fibrils (TEM) (Aβ1-40 [5]; compound at 20, FIG. 12): reduction in fibrils
- inhibition of Tau 441 aggregation (ThS fluorescence) (Tau 441 [4]): greatly inhibited

SMILES: COc1ccc2[nH]cc(-c3c[nH]c4ccc(N)cc34)c2c1 [QR-0185]
- IC50 (Aβ1-40 [1]): 12.5 µM
- Aβ1-42 fibrils (TEM) (Aβ1-42 [6]; compound 100 μM): decrease in fibrils

SMILES: O=C(O)c1cccc2c(-c3c[nH]c4ccccc34)c[nH]c12 [QR-0112]
- IC50 (Aβ1-40 [1]): 34.4 µM
- % cell viability, protection from Aβ40 ([8]; 50 μM compound): significantly protective
- % cell viability, protection from Aβ40 ([8]; 2 and 10 μM compound): trends towards protection
- effect on distribution of Aβ1-40 among states of assembly / monomer (SDS-PAGE) (Aβ1-40 [10]): increase in the concentration of Aβ1-40 monomer
- Aβ1-40 fibril formation (TEM) (Aβ1-40 [5]): increase in fibril formation but of a different morphology
